One assay has as its target T1, thrombin receptor (Homo sapiens, UniProt P25116).
T1 construct: washed human platelets are prepared from blood drawn from healthy volunteers; endogenous in cells; host or cells: washed human platelets from healthy volunteers
T1 sequence (P25116 22-425): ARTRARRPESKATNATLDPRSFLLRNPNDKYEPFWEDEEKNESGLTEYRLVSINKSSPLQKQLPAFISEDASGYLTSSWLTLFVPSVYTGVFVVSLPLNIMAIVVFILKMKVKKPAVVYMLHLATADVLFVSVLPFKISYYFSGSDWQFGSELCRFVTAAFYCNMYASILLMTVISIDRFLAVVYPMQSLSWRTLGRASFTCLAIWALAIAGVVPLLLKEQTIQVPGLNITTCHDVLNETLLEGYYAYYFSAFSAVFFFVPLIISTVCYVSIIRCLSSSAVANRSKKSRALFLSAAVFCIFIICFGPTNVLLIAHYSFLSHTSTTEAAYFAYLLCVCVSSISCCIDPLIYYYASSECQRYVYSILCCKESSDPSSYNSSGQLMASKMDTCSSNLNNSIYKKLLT
Kind of assay: Platelet aggregation assay for thrombin receptor antagonist activity (washed human platelets stimulated with α-thrombin). Particulars: washed human platelets, thrombin-mediated aggregation; read-out: IC50 (concentration at which 50% inhibition of platelet aggregation is achieved). In kind it is cell-based.

Assay [1] addresses T2, platelet thrombin receptors (Homo sapiens, UniProt P25116).
T2 construct: host or cells: platelets
T2 sequence (P25116 22-425): T1 sequence (P25116 22-425)
Particulars: platelet thrombin receptors activated with either thrombin or agonist peptides; cited from earlier work.

*1 amine or outer side, *2 acyl side, *3 side chain or, on linkers, in order; H or OH if unused. Where a SMILES comes first, the peptide text is derived from it. Where no end group is shown, it is not given here. [ ]: non-standard residue; d: D form. The star is where a group is joined. X16 = CCCCCN([C@@H](Cc1ccccc1)C(=O)[*:2])[*:1]; Butanoyl(2-OPh) = CCC(Oc1ccccc1)C(=O)*; NMeR = CN[C@@H](CCCNC(=N)N)C(=O)O; hArg = N=C(N)NCCCC[C@H](N)C(=O)O; Cha = N[C@@H](CC1CCCCC1)C(=O)O; Orn = NCCC[C@H](N)C(=O)O

For `CCCCCN[C@@H](Cc1ccccc1)C(=O)N[C@@H](CC1CCCCC1)C(=O)N[C@H](CC(C)C)C(=O)N[C@@H](CCCNC(=N)N)C(=O)N[C@@H](CCCCN)C(N)=O` [Compound 44] (H-[X16][Cha][dL]RK-NH2), the IC50 at thrombin receptor worked out at 5 µM. As for `CCCCCN[C@@H](Cc1ccccc1)C(=O)N[C@H](CC(C)C)C(=O)N[C@@H](CC1CCCCC1)C(=O)N[C@@H](CCCNC(=N)N)C(=O)N[C@@H](CCCCN)C(N)=O` [Compound 45] (H-[X16][dL][Cha]RK-NH2), the IC50 on thrombin receptor was 5 µM. Consider `CCC(Oc1ccccc1)C(=O)N[C@@H](Cc1ccccc1)C(=O)N[C@@H](CC1CCCCC1)C(=O)N[C@@H](CCCNC(=N)N)C(=O)N[C@@H](CCCCN)C(N)=O` (some centres unmarked) [Compound 46] ({Butanoyl(2-OPh)}-F[Cha]RK-NH2), for which the IC50 at thrombin receptor amounted to 15 µM. Still for that read-out and setting: then `CCC(Oc1ccccc1)C(=O)N[C@@H](CC1CCCCC1)C(=O)N[C@@H](CC1CCCCC1)C(=O)N[C@@H](CCCCNC(=N)N)C(=O)N[C@@H](CCCCN)C(N)=O` (some centres unmarked) [Compound 47] ({Butanoyl(2-OPh)}-[Cha][Cha][hArg]K-NH2), with 2.5 µM. As to `CCC(Oc1ccccc1)C(=O)N[C@@H](CC1CCCCC1)C(=O)N[C@@H](CC1CCCCC1)C(=O)N[C@@H](CCCNC(=N)N)C(=O)N[C@@H](CCCN)C(N)=O` (some centres unmarked) [Compound 48] ({Butanoyl(2-OPh)}-[Cha][Cha]R[Orn]-NH2), the IC50 on thrombin receptor was 10 µM. Take `CCC(Oc1ccccc1)C(=O)N[C@@H](CC1CCCCC1)C(=O)N[C@@H](CC1CCCCC1)C(=O)N[C@@H](CCCCN)C(=O)N[C@@H](CCCCN)C(N)=O` (some centres unmarked) [Compound 49] ({Butanoyl(2-OPh)}-[Cha][Cha]KK-NH2): the IC50 at thrombin receptor was found to be 75 µM. The same measure, in the same setting: then `CCC(Oc1ccccc1)C(=O)N[C@@H](CC1CCCCC1)C(=O)N[C@@H](CC1CCCCC1)C(=O)N[C@@H](CCCN)C(=O)N[C@@H](CCCCN)C(N)=O` (some centres unmarked) [Compound 50] ({Butanoyl(2-OPh)}-[Cha][Cha][Orn]K-NH2), with 100 µM. On to `CCC(Oc1ccccc1)C(=O)N[C@@H](CC1CCCCC1)C(=O)N[C@@H](CC1CCCCC1)C(=O)N[C@@H](CCCNC(=N)N)C(=O)N[C@@H](CCCNC(=N)N)C(N)=O` (some centres unmarked) [Compound 51] ({Butanoyl(2-OPh)}-[Cha][Cha]RR-NH2), for which, at thrombin receptor, the IC50 stood at 2.5 µM.

As for `CCC(Oc1ccccc1)C(=O)N[C@@H](CC1CCCCC1)C(=O)N[C@@H](CC1CCCCC1)C(=O)N[C@@H](CCCNC(=N)N)C(=O)N[C@H](CCCCN)C(N)=O` (some centres unmarked) [Compound 52] ({Butanoyl(2-OPh)}-[Cha][Cha]R[dK]-NH2), the IC50 at thrombin receptor was 15 µM. For the compound `CCC(Oc1ccccc1)C(=O)N[C@@H](CC1CCCCC1)C(=O)N[C@@H](CC1CCCCC1)C(=O)N(C)[C@@H](CCCNC(=N)N)C(=O)N[C@@H](CCCCN)C(N)=O` (some centres unmarked) [Compound 53] ({Butanoyl(2-OPh)}-[Cha][Cha][NMeR]K-NH2), on thrombin receptor, the IC50 was determined as 2 µM.

Regarding `CCC(Oc1ccccc1)C(=O)N[C@@H](CC1CCCCC1)C(=O)N[C@@H](CC1CCCCC1)C(=O)N(C)[C@@H](CCCNC(=N)N)C(=O)N[C@@H](CCCNC(=N)N)C(N)=O` (some centres unmarked) [Compound 54] ({Butanoyl(2-OPh)}-[Cha][Cha][NMeR]R-NH2), the IC50 on thrombin receptor was found to be 0.5 µM. Turning to `CCC(Oc1ccccc1)C(=O)N[C@@H](CC1CCCCC1)C(=O)N[C@@H](CC1CCCCC1)C(=O)N[C@@H](CCCCNC(=N)N)C(=O)N[C@@H](CCCNC(=N)N)C(N)=O` (some centres unmarked) [Compound 55] ({Butanoyl(2-OPh)}-[Cha][Cha][hArg]R-NH2), the IC50 on thrombin receptor worked out at 1 µM.

Regarding `CCC(Oc1ccccc1)C(=O)N[C@@H](Cc1ccccc1)C(=O)N[C@@H](CC1CCCCC1)C(=O)N[C@@H](CCCCNC(=N)N)C(=O)N[C@@H](CCCNC(=N)N)C(N)=O` (some centres unmarked) [Compound 57] ({Butanoyl(2-OPh)}-F[Cha][hArg]R-NH2), at thrombin receptor, the IC50 came to 2 µM. On to `CCC(Oc1ccccc1)C(=O)N[C@@H](CC1CCCCC1)C(=O)N[C@@H](CC1CCCCC1)C(=O)NCc1ccncc1` (some centres unmarked) [Compound 58], for which the IC50 at thrombin receptor is greater than 100 µM. Take `CCC(Oc1ccccc1)C(=O)N[C@@H](CC1CCCCC1)C(=O)N[C@@H](CC1CCCCC1)C(=O)NCCCN1CCN(CCCN)CC1` (some centres unmarked) [Compound 59]: on thrombin receptor, the IC50 stood at 90 µM. With `CCC(Oc1ccccc1)C(=O)N[C@@H](CC1CCCCC1)C(=O)N[C@@H](CC1CCCCC1)C(=O)NCCCN(C)C` (some centres unmarked) [Compound 60], the IC50 on thrombin receptor was 25 µM. “Phe-Leu-Leu-Arg-Asn-OH (FLLRN-OH) [pentapeptide based on a portion of the agonist peptide minimum structure]”: the “thrombin receptor antagonist activity” value in assay [1] was “weak antagonist”.

Values taken from patent US5866681A, “Thrombin receptor antagonists” (priority 1995, dated 1999).
